Laboratory results as given in PMC10233829 (ACS Omega, 2023).
In brackets after ≈: the same amount, converted by molar mass.

Columns and labels:
S. aureus ATCC 25923 = experiment: MIC, twofold microdilution, standard strain; assay type: cell-based; settings: Staphylococcus aureus, ATCC25923, 18 h
M. tuberculosis H37Rv = experiment: Tuberculostatic activity, Microplate Alamar Blue Assay (MIC); assay type: cell-based, Mycobacterium tuberculosis; settings: Mycobacterium tuberculosis, H37RV; MABA; read-out: MIC M. tuberculosis H37Rv
E. cloacae 8 = experiment: MIC, twofold microdilution, clinical strain; assay type: cell-based, Escherichia cloacae; settings: Enterobacter cloacae, 8; clinical strain, 18 h
[1] = MTT assay, cytotoxic activity; assay type: cell-based; settings: human, HaCaT cells (immortal keratinocytes); MTT, 72 h, normal cell line; read-out: IC50 HaCaT
Protocol: (§1) Cells were seeded in 6 mL medium in a tissue culture flask (50 mL) in a 37 °C/5% CO2 humidified incubator. […] MTT analysis was performed according to a previous study.[59] Untreated cells were used as controls. Cell absorbance results were inserted into the formula for the relative MTT level (%). It allows to calculate the viability of cells under the influence of the tested compounds. Cell viability was expressed as the percentage of MTT reduction in cells treated with tested compounds compared to the control sample. The relative MTT level was calculated using the formula [100%] = A/B × 100% where A—the test sample absorbance and B—the control sample absorbance.

E. coli 951 = experiment: MIC, twofold microdilution, clinical strain; assay type: cell-based; settings: Escherichia coli, 18 h
E. coli 520 = experiment: MIC, twofold microdilution, clinical strain; assay type: cell-based; settings: Escherichia coli, 18 h
P. aeruginosa 37 = experiment: MIC, twofold microdilution, clinical strain; assay type: cell-based; settings: Pseudomonas aeruginosa, 18 h
[2] = tested on: clinical bacterial strains; experiment: MIC, clinical isolates as groups of strains; assay type: cell-based
S. epidermidis 5253 = experiment: MIC, twofold microdilution, clinical strain; assay type: cell-based, Staphylococcus epidermidis; settings: Staphylococcus epidermidis, 5253, 18 h
S. epidermidis KR4243/1 = experiment: MIC, twofold microdilution, clinical strain; assay type: cell-based; settings: Staphylococcus epidermidis, 18 h
S. aureus 5595 = experiment: MIC, twofold microdilution, clinical strain; assay type: cell-based; settings: Staphylococcus aureus, 18 h
S. pasteuri KR 4358 = experiment: MIC, twofold microdilution, clinical strain; assay type: cell-based; settings: Staphylococcus pasteuri, KR4358, 18 h
S. aureus T5591 = experiment: MIC, twofold microdilution, clinical strain; assay type: cell-based, Staphylococcus aureus
[3] = tested on: S. epidermidis ATCC 12228; experiment: MIC, twofold microdilution, standard strain; assay type: cell-based; settings: Staphylococcus epidermidis, ATCC12228, 18 h
[4] = tested on: P. aeruginosa ATCC 15442 and E. coli ATCC 25922; experiment: MIC, standard Gram-negative rods as a panel; assay type: cell-based; settings: P. aeruginosa ATCC 15442, E. coli ATCC 25922; read-out: MIC against standard Gram-negative rods (range over strains)
S. aureus T5595 = experiment: MIC, twofold microdilution, clinical strain; assay type: cell-based, Staphylococcus aureus
S. aureus ATCC 29213 = experiment: MIC, twofold microdilution, standard strain; assay type: cell-based; settings: Staphylococcus aureus, ATCC29213, 18 h
P. aeruginosa ATCC 15442 = experiment: MIC, twofold microdilution, standard strain; assay type: cell-based, Pseudomonas aeruginosa; settings: Pseudomonas aeruginosa, ATCC15442; standard strain, 18 h
S. aureus NCTC 4163 = experiment: MIC, twofold microdilution, standard strain; assay type: cell-based; settings: Staphylococcus aureus, NCTC4163, 18 h
K. pneumoniae 28 = experiment: MIC, twofold microdilution, clinical strain; assay type: cell-based; settings: Klebsiella pneumoniae, 18 h
E. coli ATCC 25922 = experiment: MIC, twofold microdilution, standard strain; assay type: cell-based, Escherichia coli; settings: Escherichia coli, ATCC25922; standard strain, 18 h
S. epidermidis 4341 = experiment: MIC, twofold microdilution, clinical strain; assay type: cell-based; settings: Staphylococcus epidermidis, 18 h
K. pneumoniae 510 = experiment: MIC, twofold microdilution, clinical strain; assay type: cell-based, Klebsiella pneumoniae; settings: Klebsiella pneumoniae, 510; clinical strain, 18 h
P. aeruginosa 659 = experiment: MIC, twofold microdilution, clinical strain; assay type: cell-based; settings: Pseudomonas aeruginosa, 18 h
M. tuberculosis Spec 210 = experiment: microbe, parasite or virus in culture; assay type: cell-based, Mycobacterium tuberculosis; settings: M. tuberculosis Spec. 210
S. aureus 180 = experiment: MIC, twofold microdilution, clinical strain; assay type: cell-based; settings: Staphylococcus aureus, 18 h
[5] = tested on: S. epidermidis ATCC 35984; experiment: MIC, twofold microdilution, standard strain; assay type: cell-based; settings: Staphylococcus epidermidis, ATCC35984, 18 h
S. aureus ATCC 6538 = experiment: MIC, twofold microdilution, standard strain; assay type: cell-based, Staphylococcus aureus; settings: Staphylococcus aureus, ATCC6538; standard strain, 18 h
PC3 cells = experiment: MTT assay, cytotoxic activity; assay type: cell-based, human; settings: Homo sapiens, PC-3, 72 h, MTT, 72 h
Protocol: as §1, with “Metastatic prostate cancer (PC3) and human immortal keratinocyte (HaCaT) cell lines were purchased from the American Type Culture Collection (ATCC, Rockville, MD, USA) and cultured in MEM (minimal essential medium, Thermo Sci, USA), RPMI 1640 (Roswell Park Memorial Institute, Biowest SAS, France), and DMEM (Dulbecco’s Modified Eagle’s Medium, Biowest SAS, France). Cells” for “Cells”

E. coli 600 = experiment: MIC, twofold microdilution, clinical strain; assay type: cell-based, Escherichia coli; settings: 18 h
[6] = tested on: M. tuberculosis Spec. 192; experiment: Tuberculostatic activity, Microplate Alamar Blue Assay (MIC); assay type: cell-based; settings: Mycobacterium tuberculosis, MABA, read-out: MIC M. tuberculosis Spec. 192 (sensitive to tuberculostatics)
[7] = molecular target: T1, S. aureus topoisomerase IV (Staphylococcus aureus, UniProt P0C1S7+P0C1U9); experiment: Topoisomerase IV decatenation assay; assay type: biochemical; settings: IC50 S. aureus topoisomerase IV, decatenation of kinetoplast DNA
T1 construct: purchased Inspiralis, Norwich, UK

SMILES: O=C(O)c1cn(C2CC2)c2cc(N3CCN(C(=O)CCBr)CC3)c(F)cc2c1=O [Compound 9, 7-[4-(3-Bromopropionyl)-piperazin-1-yl]-1-cyclopropyl-6-fluoro-4-oxo-1,4-dihydro-quinoline-3-carboxylic Acid]
- MIC (S. aureus ATCC 25923): 0.2 µg/mL (≈ 0.429 µM)
- MIC (M. tuberculosis H37Rv): 2 µg/mL (≈ 4.29 µM)
- MIC (E. cloacae 8): 2 µg/mL (≈ 4.29 µM)
- IC50 at 72 h [1]: > 100 µM
- MIC (E. coli 951): 64 µg/mL (≈ 137 µM)
- MIC (E. coli 520): 0.8 µg/mL (≈ 1.72 µM)
- MIC (P. aeruginosa 37): 128 µg/mL (≈ 274 µM)
- times more powerful than CP ([2]; S. aureus T5595 and T5591): 1.25–2.5 times
- MIC ([2]; clinical strains, read-out: MIC against selected E. coli and E. cloacae strains): 0.1 to 0.8 µg/mL (≈ 0.214 to 1.72 µM)
- MIC (S. epidermidis 5253): 128 µg/mL (≈ 274 µM)
- MIC (S. epidermidis KR4243/1): 0.1 µg/mL (≈ 0.214 µM)
- MIC (S. aureus 5595): 0.5 µg/mL (≈ 1.07 µM)
- MIC (S. pasteuri KR 4358): 0.2 µg/mL (≈ 0.429 µM)
- MIC S. aureus T5591 (S. aureus T5591; 18 h): 0.1 µg/mL (≈ 0.214 µM)
- MIC (S. aureus T5591; Staphylococcus aureus, T5591, 18 h): 0.1 to 0.2 µg/mL (≈ 0.214 to 0.429 µM)
- MIC [3]: 0.2 µg/mL (≈ 0.429 µM)
- MIC [4]: ≤ 1 µg/mL
- MIC S. aureus T5595 (S. aureus T5595; 18 h): 0.2 µg/mL (≈ 0.429 µM)
- MIC (S. aureus T5595; Staphylococcus aureus, T5595, 18 h): 0.1 to 0.2 µg/mL (≈ 0.214 to 0.429 µM)
- MIC (S. aureus ATCC 29213): 0.2 µg/mL (≈ 0.429 µM)
- MIC (P. aeruginosa ATCC 15442): 12.8 µg/mL (≈ 27.4 µM)
- MIC (S. aureus NCTC 4163): 0.1 µg/mL (≈ 0.214 µM)
- MIC (K. pneumoniae 28): > 25.6 µg/mL
- MIC (E. coli ATCC 25922): 0.4 µg/mL (≈ 0.858 µM)
- MIC (S. epidermidis 4341): 16 µg/mL (≈ 34.3 µM)
- MIC (K. pneumoniae 510): > 25.6 µg/mL
- MIC (P. aeruginosa 659): > 25.6 µg/mL
- fold more effective than the reference tuberculostatics (M. tuberculosis Spec 210): 8–32 fold
- MIC (S. aureus 180): 0.5 µg/mL (≈ 1.07 µM)
- MIC [5]: 0.2 µg/mL (≈ 0.429 µM)
- MIC (S. aureus ATCC 6538): 0.2 µg/mL (≈ 0.429 µM)
- IC50 (PC3 cells): 69.1 ± 5.8 µM
- MIC E. coli 600 (E. coli 600): –0.4 μg/mL
- MIC [6]: 2 µg/mL (≈ 4.29 µM)

SMILES: COc1c(N2C[C@@H]3CCCN[C@@H]3C2)c(F)cc2c(=O)c(C(=O)O)cn(C3CC3)c12 [MXF, moxifloxacin, reference compound]
- IC50 [7]: 3.74 µM
